This note sets out measurements from patent publication US20260070945A1, “MACROCYCLIC IMMUNOMODULATORS” (Bristol-Myers Squibb Company, priority 2022, published 2026).

Where a SMILES comes first, the peptide text is derived from it. Bridges are numbered along the chain shown (N, C = ends). [ ]: non-standard residue; d: D form. The star is where a group is joined. ξ: configuration not given here. Phe(4-CF3) = N[C@@H](Cc1ccc(C(F)(F)F)cc1)C(=O)O; Phe(4-COOH) = N[C@@H](Cc1ccc(C(=O)O)cc1)C(=O)O; Bip = N[C@@H](Cc1ccc(-c2ccccc2)cc1)C(=O)O; Phe(3-Cl) = N[C@@H](Cc1cccc(Cl)c1)C(=O)O; Phe(3-Me) = Cc1cccc(C[C@H](N)C(=O)O)c1; Val(3-OH) = CC(C)(O)[C@H](N)C(=O)O; 4Pal = N[C@@H](Cc1ccncc1)C(=O)O; Cha = N[C@@H](CC1CCCCC1)C(=O)O; Ile(3ξ) = CCC(C)[C@H](N)C(=O)O; Thr(3ξ) = CC(O)[C@H](N)C(=O)O; dOrn = NCCC[C@@H](N)C(=O)O; Carboxymethyl = O=C(O)C*; NMeA = CN[C@@H](C)C(=O)O; Orn = NCCC[C@H](N)C(=O)O; Aun = NCCCCCCCCCCC(=O)O; Dab = NCC[C@H](N)C(=O)O; Dap = NC[C@H](N)C(=O)O; AEEA = NCCOCCOCC(=O)O

T1 sequence (Q15116 25-288): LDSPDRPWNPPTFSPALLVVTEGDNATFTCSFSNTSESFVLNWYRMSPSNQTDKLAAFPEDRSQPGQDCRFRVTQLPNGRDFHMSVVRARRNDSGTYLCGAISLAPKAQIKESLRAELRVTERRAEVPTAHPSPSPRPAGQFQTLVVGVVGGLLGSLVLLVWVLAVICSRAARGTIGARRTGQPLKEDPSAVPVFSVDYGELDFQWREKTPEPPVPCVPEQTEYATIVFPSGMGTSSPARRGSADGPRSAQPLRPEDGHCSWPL

The first test has as its target T1, PD-1/PD-L1 interaction (PE-labeled human PD-L1-Ig binding to Jurkat cell line over-expressing human PD-1) (Homo sapiens, UniProt Q15116).
T1 construct: expressed in transfected cells; host or cells: Jurkat
Kind of test: Jurkat-PD-1 Cell Binding High-Content Screening Assay (CBA). The following applies: Jurkat-hPD-1 cells, PE-labeled PD-L1-Ig 20 nM final; read-out: Jurkat HPD1 PDL1 IC50. In outline:
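Binding of 20 nM (final) PE-tagged PD-L1-Ig to compound-pretreated Jurkat-hPD-1 cells was measured by high-content imaging after 1 h. Pretreatment ran 2 h at 37 °C in DMEM with 10% fetal calf serum.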
For the compound `CC(C)C[C@@H]1NC(=O)[C@H](Cc2c[nH]c3ccccc23)NC(=O)[C@H](CC(=O)O)NC(=O)[C@H](Cc2ccc(C(=O)O)cc2)NC(=O)[C@H](Cc2ccc(OCC(=O)O)cc2)NC(=O)CSC[C@@H](C(=O)NCC(=O)N[C@@H](CCC(=O)O)C(=O)NCCCCCCCCCCC(=O)O)NC(=O)[C@H](CO)NC(=O)[C@H](C(C)C)NC(=O)[C@H](CC2CCCCC2)NC(=O)[C@H](CCN)NC(=O)[C@@H](CC(C)C)NC(=O)[C@H](C)N(C)C(=O)[C@H](C(C)C)NC(=O)[C@H](Cc2ccc(-c3ccccc3)cc2)NC1=O` [Example 1040] ({CH2CO}-Y(Carboxymethyl)[Phe(4-COOH)]DWL[Bip]V[NMeA][dL][Dab][Cha]VSCGE[Aun]-OH; thioether N-14), the IC50 is 14 nM.

For the compound `CC(C)C[C@H]1NC(=O)[C@H](C)N(C)C(=O)[C@H](Cc2ccc(OCC(=O)O)cc2)NC(=O)[C@H](Cc2ccc(-c3ccccc3)cc2)NC(=O)[C@H](Cc2ccc(OCC(=O)O)cc2)NC(=O)[C@H](Cc2cccc(Cl)c2)NC(=O)[C@H](CC(=O)O)NC(=O)[C@H](Cc2ccc(OCC(=O)O)cc2)NC(=O)[C@H]([C@@H](C)O)NC(=O)CSC[C@@H](C(=O)N[C@@H](CCN)C(=O)NCCOCCOCC(=O)NCCCCCCCCCCC(=O)O)NC(=O)[C@H](CCC(=O)O)NC(=O)[C@H](C(C)C)NC(=O)[C@H](CC2CCCCC2)NC(=O)[C@H](CCN)NC1=O` [Example 1229] ({CH2CO}-TY(Carboxymethyl)D[Phe(3-Cl)]Y(Carboxymethyl)[Bip]Y(Carboxymethyl)[NMeA][dL][Dab][Cha]VEC[Dab][AEEA][Aun]-OH; thioether N-14), the IC50 was found to be 15.2 nM.

`CC(C)C[C@H]1NC(=O)[C@H](C)N(C)C(=O)[C@H](C(C)C)NC(=O)[C@H](Cc2ccc(-c3ccccc3)cc2)NC(=O)[C@H](C(C)C)NC(=O)[C@H](Cc2c[nH]c3ccccc23)NC(=O)[C@H](CC(=O)O)NC(=O)[C@H](Cc2ccc(OCC(=O)O)cc2)NC(=O)[C@H](CN)NC(=O)CSC[C@@H](C(=O)NCCOCCOCC(=O)N[C@@H](CN)C(=O)NCCCCCCCCCCC(=O)O)NC(=O)[C@H](C(C)O)NC(=O)[C@H](C(C)C)NC(=O)[C@H](CC2CCCCC2)NC(=O)[C@H](CCN)NC1=O` (stereo partly drawn) [Example 2099] ({CH2CO}-[Dap]Y(Carboxymethyl)DWV[Bip]V[NMeA][dL][Dab][Cha]V[Thr(3ξ)]C[AEEA][Dap][Aun]-OH; thioether N-14): the IC50 was 17 nM.

For the compound `CC(C)C[C@@H]1NC(=O)[C@H](Cc2c[nH]c3ccccc23)NC(=O)[C@H](CC(=O)O)NC(=O)[C@H](Cc2ccc(O)cc2)NC(=O)[C@H](Cc2ccccc2)NC(=O)CSC[C@@H](C(=O)N[C@@H](C)C(=O)N[C@H](CCCCN)C(=O)NCCCCCCCCCCC(=O)O)NC(=O)[C@H](CO)NC(=O)[C@H](C(C)C)NC(=O)[C@H](CC(C)C)NC(=O)[C@H](CCN)NC(=O)[C@@H](CC(C)C)NC(=O)[C@H](C)N(C)C(=O)[C@H](C(C)C)NC(=O)[C@H](Cc2ccc(-c3ccccc3)cc2)NC1=O` [Example 2035] ({CH2CO}-FYDWL[Bip]V[NMeA][dL][Dab]LVSCA[dK][Aun]-OH; thioether N-14), the IC50 was found to be 21.9 nM.

For the compound `CC(C)C[C@@H]1NC(=O)[C@H](Cc2c[nH]c3ccccc23)NC(=O)[C@H](CC(=O)O)NC(=O)[C@H](Cc2ccc(C(=O)O)cc2)NC(=O)[C@H](Cc2ccc(OCC(=O)O)cc2)NC(=O)CSC[C@@H](C(=O)N[C@@H](CCCN)C(=O)NCCOCCOCC(=O)NCCCCCCCCCCC(=O)O)NC(=O)[C@H](CCCCN)NC(=O)[C@H](C(C)C)NC(=O)[C@H](CC2CCCCC2)NC(=O)[C@H](CCC(=O)O)NC(=O)[C@@H](CC(C)C)NC(=O)[C@H](C)N(C)C(=O)[C@H](C(C)C)NC(=O)[C@H](Cc2ccc(-c3ccccc3)cc2)NC1=O` [Example 2137] ({CH2CO}-Y(Carboxymethyl)[Phe(4-COOH)]DWL[Bip]V[NMeA][dL]E[Cha]VKC[Orn][AEEA][Aun]-OH; thioether N-14), the IC50 came to 30.4 nM.

With `CCC(C)[C@@H]1NC(=O)[C@H](Cc2ccc(-c3ccccc3)cc2)NC(=O)[C@H](CC(C)C)NC(=O)[C@H](Cc2c[nH]c3ccccc23)NC(=O)[C@H](CC(=O)O)NC(=O)[C@H](Cc2ccc(O)cc2)NC(=O)[C@H](Cc2ccncc2)NC(=O)CSC[C@@H](C(=O)N[C@H](CCCN)C(=O)NCCOCCOCC(=O)NCCCCCCCCCCC(=O)O)NC(=O)[C@H](CO)NC(=O)[C@H](C(C)C)NC(=O)[C@H](CC2CCCCC2)NC(=O)[C@H](CC(N)=O)NC(=O)[C@@H](CC(C)C)NC(=O)[C@H](C)N(C)C1=O` (stereo partly drawn) [Example 2070] ({CH2CO}-[4Pal]YDWL[Bip][Ile(3ξ)][NMeA][dL]N[Cha]VSC[dOrn][AEEA][Aun]-OH; thioether N-14), the 50% inhibitory concentration (IC50) was determined as 97.4 nM.

As to `CC(C)C[C@@H]1NC(=O)[C@H](Cc2c[nH]c3ccccc23)NC(=O)[C@H](CC(=O)O)NC(=O)[C@H](Cc2ccc(OCC(=O)O)cc2)NC(=O)[C@H](Cc2ccc(OCC(=O)O)cc2)NC(=O)CSC[C@@H](C(=O)NCCOCCOCC(=O)NCCCCCCCCCCC(=O)O)NC(=O)[C@H](CO)NC(=O)[C@H](C(C)(C)O)NC(=O)[C@H](CC2CCCCC2)NC(=O)[C@H](CC(N)=O)NC(=O)[C@@H](CC(C)C)NC(=O)[C@H](C)N(C)C(=O)[C@H](C(C)C)NC(=O)[C@H](Cc2ccc(-c3ccccc3)cc2)NC1=O` [Example 2446] ({CH2CO}-Y(Carboxymethyl)Y(Carboxymethyl)DWL[Bip]V[NMeA][dL]N[Cha][Val(3-OH)]SC[AEEA][Aun]-OH; thioether N-14), the IC50 came out at 239 nM.

Still in this test, the particulars now being: PE-labeled PD-L1-Ig 20 nM final, Jurkat-hPD-1 cells; read-out: Jurkat HPD1 PDL1 IC50.
Consider `CC(=O)NCCCC[C@@H]1NC(=O)[C@H](C(C)(C)O)NC(=O)[C@H](CC2CCCCC2)NC(=O)[C@H](CCN)NC(=O)[C@@H](CC(C)C)NC(=O)[C@H](C)N(C)C(=O)[C@H](Cc2ccc(C(F)(F)F)cc2)NC(=O)[C@H](Cc2ccc(-c3ccccc3)cc2)NC(=O)[C@H](Cc2ccc(C(=O)O)cc2)NC(=O)[C@H](Cc2cccc(C)c2)NC(=O)[C@H](CC(=O)O)NC(=O)[C@H](Cc2ccc(OCC(=O)O)cc2)NC(=O)[C@H](Cc2ccc(OCC(=O)O)cc2)NC(=O)CSC[C@@H](C(=O)N[C@@H](CCN)C(=O)NCCOCCOCC(=O)NCCCCCCCCCCC(=O)O)NC1=O` [Example 2594] ({CH2CO}-Y(Carboxymethyl)Y(Carboxymethyl)D[Phe(3-Me)][Phe(4-COOH)][Bip][Phe(4-CF3)][NMeA][dL][Dab][Cha][Val(3-OH)]K(Ac)C[Dab][AEEA][Aun]-OH; thioether N-14), for which the IC50 worked out at 5.7 nM.

As to `Cc1cccc(C[C@@H]2NC(=O)[C@H](CC(=O)O)NC(=O)[C@H](Cc3ccc(C(=O)O)cc3)NC(=O)[C@H](C(C)O)NC(=O)CSC[C@@H](C(=O)N[C@@H](CCN)C(=O)NCCOCCOCC(=O)NCCCCCCCCCCC(=O)O)NC(=O)[C@H](CC(=O)O)NC(=O)[C@H](C(C)C)NC(=O)[C@H](CC3CCCCC3)NC(=O)[C@H](CCN)NC(=O)[C@@H](CC(C)C)NC(=O)[C@H](C)N(C)C(=O)[C@H](Cc3ccc(C(=O)O)cc3)NC(=O)[C@H](Cc3ccc(-c4ccccc4)cc3)NC(=O)[C@H](Cc3ccc(C(=O)O)cc3)NC2=O)c1` (stereo partly drawn) [Example 2557] ({CH2CO}-[Thr(3ξ)][Phe(4-COOH)]D[Phe(3-Me)][Phe(4-COOH)][Bip][Phe(4-COOH)][NMeA][dL][Dab][Cha]VDC[Dab][AEEA][Aun]-OH; thioether N-14), the concentration for half-maximal inhibition (IC50) turned out to be 0.7 nM.

What is called IC50 is the midpoint of a concentration-inhibition curve.
